In this experiment the target is T1, cloned human alpha-1A adrenergic receptors (α1a) (Homo sapiens, UniProt P35348).
T1 construct: expressed in transfected cells; membranes
T1 sequence (P35348 1-466): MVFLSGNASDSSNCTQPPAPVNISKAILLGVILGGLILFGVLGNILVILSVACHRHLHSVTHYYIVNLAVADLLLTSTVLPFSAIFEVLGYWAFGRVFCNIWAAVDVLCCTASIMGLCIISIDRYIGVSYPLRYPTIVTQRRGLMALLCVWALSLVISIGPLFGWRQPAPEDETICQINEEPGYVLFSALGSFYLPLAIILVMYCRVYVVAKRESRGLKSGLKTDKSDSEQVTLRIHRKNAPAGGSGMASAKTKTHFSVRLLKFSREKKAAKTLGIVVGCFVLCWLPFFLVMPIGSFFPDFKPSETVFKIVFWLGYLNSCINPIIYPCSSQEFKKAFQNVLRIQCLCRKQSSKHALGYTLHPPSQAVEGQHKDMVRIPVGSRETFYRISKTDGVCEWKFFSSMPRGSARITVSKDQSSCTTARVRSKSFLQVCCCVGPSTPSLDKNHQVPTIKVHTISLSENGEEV
As to the kind of experiment: [3H]Prazosin binding to cloned human alpha-1A adrenergic receptors expressed in CHO cells. As to conditions: read-out: halpha1Ki (nM) h = human. An excerpt: ^3H]Prazosin Binding to Cloned Human Alpha-1A Adrenergic Receptors (α1a) Expressed in Chinese Hamster Ovary Cells (CHO)
• Purpose: This in vitro assay is designed as a screen to identify compounds displaying a affinity for the human α1a adrenoceptor subtype expressed in the membrane fragments of CHO cells. The assay measures the ability of the test compounds to displace [^3H] prazosin from α1a sites. • The identification of multiple vascular α1-addrenoceptors (α1a, α1b, α1d) in vitro has provided impetus to define the role(s) of these subtypes in cardiovascular regulation in vivo (Vargas and Gorman, 1995). […] Prazosin is a potent antagonist of the human α1a-adrenoceptor subtype, which has been cloned and is expressed in the membrane fragments of CHO cells. • hα1a receptor: The cloning of the human α1a cDNA was accomplished first by screening a human prostate cDNA library (Clontech), from which a portion of the coding region was obtained. This DNA fragment was then used to screen a human leukocyte genomic library (Clontech), and the rest of the coding sequence was obtained. Later these two fragments were spliced together. The entire coding sequence was then fully sequenced including matching PCR sequence with original genomic coding sequence, thus ensuring splice sites were joined correctly (Schwinn et al., 1995). Once sequenced, the gene was subcloned into the expression vector pcDNA3 (Invitrogen). Plasmid DNA was then used for transfection into CHO cells and G418 resistant clones were isolated. A clone expressing high levels of the hα1a receptor (as determined by mRNA and receptor binding data) was chosen and pharmacologically characterized. • Culture Media Ingredients for Adherent α1a expressing CHO Culture: • A. HAM's F-12 (Celigro) • B. 10% 0.2 micron filtered Fetal Bovine Serum (FBS)(Celigro) • C. 1% 0.2 micron filtered Penicillin-Streptomycin (Celigro) • D. G418 0.2 micron filtered (Geneticin 400 μg/ml)(Celigro) • Cells are cultured using established methods and procedures in either 150×25 mm culture plates (scale up to 100 plates) or a combination of these plates and 70 roller bottles. One culturing/harvest cycle typically requires 2 weeks and yields between 100-400 mg protein. Plates or bottles are incubated at 37° C.+5% CO2. • Storage: Cells are harvested by mechanical scraping, washed using PBS, collected in 250 ml Corning polypropylene centrifuge tubes, spun down (1500 RPM) and resuspended in dH2O 10% DMSO (final volume per harvest is approximately 50 ml). Protein determination is made using the Biorad DC Assay Kit. Finally, the appropriate volume is aliquoted into a 2 ml Corning Cryovial (10 mg/1-1.5 ml) which is stored at −80° C.
• Assay Requirement: 0.5 cryovials per 96 well plate (assay volume=200 μl/well) • [^3H]-Ligand: [7-methoxy-^3H]-Prazosin: 1.0 nM (NEN, NET-823) • 70-87 Ci/mmol • Materials: Phentolamine mesylate (Research Biochemicals Int. #P-131) • 96 well flat bottom plates (Beckman) • Unifilter GF/B Plate (Packard) • Polyethylenimine (Sigma #P-3134) • TomTec or Packard Filtermate 196 Cell Harvesters • Packard TopCount Scintillation Counter • Buffers: A: 50 mM Tris HCl; 0.1% ascorbate, pH 7.7 (incubation buffer) • B: 50 mM Tris HCl; pH 7.7 (wash buffer) • Procedure: Assay additions are as follows (in the order indicated): • Total Binding=50 μl buffer A+50 μl [^3H]prazosin+100 μl membrane • Nonsp. Bd.=50 μl 10 μM phentolamine+50 μl [^3H]prazosin+100 μl membrane • Test Cpd.=50 μl compound+50 μl [^3H]prazosin+100 μl membrane • Compounds to be evaluated are weighed out to yield a 10 mM stock solution in DMSO in a 24 well polystyrene plate. This is diluted to a 0.5 mM stock in dH2O, Serial dilutions in Buffer A are made from which 50 μl additions to the plate are made in duplicate in order to achieve the final concentrations desired. Typically, one 96 well plate is used to evaluate 11 compounds at 4 concentrations (10^−6-10^−9 M) in duplicate. Total binding and nonspecific binding are determined in quadruplicate. […]

Take `CN(C)C1CCN(C(=O)CCCN2CCN(c3csc4cc(F)ccc34)CC2)C1` (centres unmarked) [compound 826863]: the Ki is 32.2 nM.
Take `CC1(C)CCCN(C(=O)CCCN2CCN(c3csc4cc(F)ccc34)CC2)C1` (racemic) [compound 826857]: the Ki is 9.82 nM.

The values are drawn from patent US7772252B2, “Heterocyclic substituted carbonyl derivatives and their use as dopamine D3 receptor ligands” (Aventis Pharmaceuticals Inc., priority 2001, dated 2010).
